Reference: US10059740B2, “Integrin interaction inhibitors for the treatment of cancer” (H. LEE MOFFITT CANCER CENTER AND RESEARCH INSTITUTE, INC., priority 2010, dated 2018)
Starred links: 1 amine or outer side, 2 acyl side, 3 side chain; linkers in the order of their positions; H or OH if unused. Positions of bridges follow the written chain, without caps; N, C: chain ends. Non-standard residues stand in square brackets, D forms with d. Residues, ends and D or L forms follow the SMILES beside them. *: point of attachment. dProlinol(O-CH2CO) = O=C(COC[C@H]1CCCN1[*:1])[*:2]; N(2-Aminoethyl)Gly = O=C(CN(CCN[*:3])[*:1])[*:2]; Nle = CCCC[C@H](N)C(=O)O; Ms = CS(=O)(=O)*

test system: H929 myeloma cells; format: cell-based; conditions: 24 h
Method: H929 cells were treated for 24 hours with varying concentrations of peptide. Cell death was measured by Topro-3 staining and FACS analysis. The IC50 values were obtained from linear regression analysis and an average value was obtained from 3 independent experiments.
Table 4 legend: Structure activity relationship in H929 myeloma cells of cyclic INTEGRIN INTERACTION INHIBITORS derivatives. The minimal bioactive core sequence of INTEGRIN INTERACTION INHIBITORS WSVVM (SEQ ID NO:85) was cyclized using 2 novel reduced amide bond beta turn promoters and KLKLK (SEQ ID NO:27) as the non-recognition sequence. H929 cells were treated with varying concentrations of the indicated peptide for 24 h. Cell viability was determined using Topro-3 staining and FACS analysis after drug treatment. IC50 values were generated from linear regressions generated from the dose response curves (n=mean of 3 independent experiments).
Using combinatorial peptide libraries and a functional binding assay, several peptides have been identified that inhibited α2β1 and α6β1 integrin mediated adhesion of prostate cancer cells to fibronectin, laminin and collagen IV.^1 They identified an all D-amino acid containing peptide referred as HYD1 ([…]) (SEQ ID NO:278) that blocks binding of epithelial prostate carcinoma cells to extracellular matrix components.^2,3 Hazlehurst and co-workers have truncated the N- and C-termini and alanine scan studies identified MVISW (SEQ ID NO:279) as the likely core region of linear D-HYD1 required for biological activity. […] The pentapeptide (KLKLK) (SEQ ID NO:27) was selected as the non-recognition strand to improve the solubility. N- to C-terminus cyclization of linear peptides was done to restrict the number of conformations available to the linear peptide which increases the affinity of the cyclized peptide for its target when the constraint stabilizes the bound conformation of the peptide. We synthesized cyclic D-HYD1 using a novel methylsulfonamide aminoethyl glycine linker T1 that connects two anti-parallel strands. […] The inverso- (peptide 2, Table 4) and partially modified retro-inverso (PMRI) (peptide 10) pentapeptide sequences of the recognition strand of cyclic III (Integrin Interaction Inhibitors also known as cyclic L-HYD1) peptide analogs were subsequently investigated for their potential to block beta integrin mediated cell adhesion. The retro-inverso design of biologically active peptides is a well-known strategy to design all D-amino acid peptides from potentially bioactive all L-peptide sequences with increased stability^4-7.
A colony forming assay was used to compare induced cell death in H929 multiple myeloma cells. Cells were treated with integrin interaction inhibitors, shown in FIG. 5 and Table 4, and cell death was measured following 24 hour peptide treatment by TOPRO-3 staining and FACS analysis.

Compound | IC50 [µM]
CSCC[C@@H]1NC(=O)[C@H](C(C)C)NC(=O)[C@H](C(C)C)NC(=O)[C@H](CO)NC(=O)[C@H](Cc2c[nH]c3ccccc23)NC(=O)CN(S(C)(=O)=O)CCNC(=O)[C@H](CCCCN)NC(=O)[C@H](CC(C)C)NC(=O)[C@H](CCCCN)NC(=O)[C@H](CC(C)C)NC(=O)[C@H](CCCCN)NC(=O)CN(S(C)(=O)=O)CCNC1=O [III 8] | 6.7
CCCC[C@@H]1NC(=O)[C@H](C(C)C)NC(=O)[C@H](C(C)C)NC(=O)[C@H](C)NC(=O)[C@H](Cc2c[nH]c3ccccc23)NC(=O)CN(S(C)(=O)=O)CCNC(=O)[C@H](CCCCN)NC(=O)[C@H](CC(C)C)NC(=O)[C@H](CCCCN)NC(=O)[C@H](CC(C)C)NC(=O)[C@H](CCCCN)NC(=O)CN(S(C)(=O)=O)CCNC1=O [Peptide 11, KLKLKT1WAVVN*T1] | 12
CC(C)C[C@@H]1NC(=O)[C@H](CCCCN)NC(=O)CN(S(C)(=O)=O)CCNC(=O)[C@H](C)NC(=O)[C@H](C(C)C)NC(=O)[C@H](C(C)C)NC(=O)[C@H](C)NC(=O)[C@H](Cc2c[nH]c3ccccc23)NC(=O)CN(S(C)(=O)=O)CCNC(=O)[C@H](CCCCN)NC(=O)[C@H](CC(C)C)NC(=O)[C@H](CCCCN)NC1=O [Peptide 12, KLKLKT1WAVVAT1] | 69
CCCC[C@@H]1NC(=O)[C@H](C(C)C)NC(=O)[C@H](C)NC(=O)[C@H](C)NC(=O)[C@H](Cc2c[nH]c3ccccc23)NC(=O)CN(S(C)(=O)=O)CCNC(=O)[C@H](CCCCN)NC(=O)[C@H](CC(C)C)NC(=O)[C@H](CCCCN)NC(=O)[C@H](CC(C)C)NC(=O)[C@H](CCCCN)NC(=O)CN(S(C)(=O)=O)CCNC1=O [Peptide 14, KLKLKT1WAAVN*T1] | 41
CCCC[C@@H]1NC(=O)[C@H](C(C)C)NC(=O)[C@H](C(C)C)NC(=O)[C@H](C)NC(=O)[C@H](C)NC(=O)CN(S(C)(=O)=O)CCNC(=O)[C@H](CCCCN)NC(=O)[C@H](CC(C)C)NC(=O)[C@H](CCCCN)NC(=O)[C@H](CC(C)C)NC(=O)[C@H](CCCCN)NC(=O)CN(S(C)(=O)=O)CCNC1=O [Peptide 15, KLKLKT1AAVVN*T1] | 3
CCCC[C@@H]1NC(=O)CN(S(C)(=O)=O)CCNC(=O)[C@H](CCCCN)NC(=O)[C@H](CC(C)C)NC(=O)[C@H](CCC(N)=O)NC(=O)[C@H](CC(C)C)NC(=O)[C@H](CCCCN)NC(=O)COC[C@H]2CCCN2C(=O)[C@H](Cc2c[nH]c3ccccc23)NC(=O)[C@H](C)NC(=O)[C@H](C(C)C)NC(=O)[C@H](C(C)C)NC1=O [Peptide 17, KLKQKT1N*VVAWT3] (Ms-[N(2-Aminoethyl)Gly][Nle]VVAW[dProlinol(O-CH2CO)]KLQLK; lactam 1-C) | 13
CCCC[C@@H]1NC(=O)CN(S(C)(=O)=O)CCNC(=O)[C@H](CCC(N)=O)NC(=O)[C@H](CC(C)C)NC(=O)[C@H](CCCCN)NC(=O)[C@H](CC(C)C)NC(=O)[C@H](CCCCN)NC(=O)COC[C@H]2CCCN2C(=O)[C@H](Cc2c[nH]c3ccccc23)NC(=O)[C@H](C)NC(=O)[C@H](C(C)C)NC(=O)[C@H](C(C)C)NC1=O [Peptide 19, KLKLQT1N*VVAWT3] (Ms-[N(2-Aminoethyl)Gly][Nle]VVAW[dProlinol(O-CH2CO)]KLKLQ; lactam 1-C) | 19

same assay, conditions: H929 cells

Compound | fold more potent than the parent linear HYD1 peptide [fold]
CSCC[C@@H]1NC(=O)CN(S(C)(=O)=O)CCNC(=O)[C@H](CCCCN)NC(=O)[C@H](CC(C)C)NC(=O)[C@H](CCCCN)NC(=O)[C@H](CC(C)C)NC(=O)[C@H](CCCCN)NC(=O)CN(S(C)(=O)=O)CCNC(=O)[C@H](Cc2c[nH]c3ccccc23)NC(=O)[C@H](CO)NC(=O)[C@H](C(C)C)NC(=O)[C@H](C(C)C)NC1=O [III 1] | 2.5

same assay, conditions: H929 cells, 24 hours, Topro-3 and FACS; read-out: IC50 value in H929 cells

Compound | IC50 [µM]
CCCC[C@@H]1NC(=O)CN(S(C)(=O)=O)CCNC(=O)[C@H](CCCCN)NC(=O)[C@H](CC(C)C)NC(=O)[C@H](CCCCN)NC(=O)[C@H](CC(C)C)NC(=O)[C@H](CCCCN)NC(=O)COC[C@H]2CCCN2C(=O)[C@H](Cc2c[nH]c3ccccc23)NC(=O)[C@H](C)NC(=O)[C@H](C(C)C)NC(=O)[C@H](C(C)C)NC1=O [Peptide 16, KLKLKT1N*VVAWT3] (Ms-[N(2-Aminoethyl)Gly][Nle]VVAW[dProlinol(O-CH2CO)]KLKLK; lactam 1-C) | 1

same assay, conditions: SAR discussion of Table 8

Compound | bioactivity of cyclic III peptide analogs, in words
CSCC[C@@H]1NC(=O)CN(S(C)(=O)=O)CCNC(=O)[C@H](CCCCN)NC(=O)[C@H](CC(C)C)NC(=O)[C@H](CCCCN)NC(=O)[C@H](CC(C)C)NC(=O)[C@H](CCCCN)NC(=O)CN(S(C)(=O)=O)CCNC(=O)[C@H](Cc2c[nH]c3ccccc23)NC(=O)[C@H](C)NC(=O)[C@H](C(C)C)NC(=O)[C@H](C(C)C)NC1=O [Peptide 4, KLKLKT1MVVAWT1] | significantly improved the bioactivity
CCCC[C@@H]1NC(=O)CN(S(C)(=O)=O)CCNC(=O)[C@H](CCCCN)NC(=O)[C@H](CC(C)C)NC(=O)[C@H](CCCCN)NC(=O)[C@H](CC(C)C)NC(=O)[C@H](CCCCN)NC(=O)CN(S(C)(=O)=O)CCNC(=O)[C@H](Cc2c[nH]c3ccccc23)NC(=O)[C@H](CO)NC(=O)[C@H](C(C)C)NC(=O)[C@H](C(C)C)NC1=O [Peptide 8, KLKLKT1N*VVSWT1] | further increase of the peptide's bioactivity
CCCC[C@@H]1NC(=O)[C@H](C(C)C)NC(=O)[C@H](C(C)C)NC(=O)[C@H](C)NC(=O)[C@H](C)NC(=O)CN(S(C)(=O)=O)CCNC(=O)[C@H](CCCCN)NC(=O)[C@H](CC(C)C)NC(=O)[C@H](CCCCN)NC(=O)[C@H](CC(C)C)NC(=O)[C@H](CCCCN)NC(=O)CN(S(C)(=O)=O)CCNC1=O [Peptide 15, KLKLKT1AAVVN*T1] | unexpected improvement in bioactivity

same assay, conditions: alanine scan and analogs, Table 4 legend, H929 cells

Compound | change in activity relative to the inverso peptide L-cINTEGRIN INTERACTION INHIBITORS
CSCC[C@@H]1NC(=O)CN(S(C)(=O)=O)CCNC(=O)[C@H](CCCCN)NC(=O)[C@H](CC(C)C)NC(=O)[C@H](CCCCN)NC(=O)[C@H](CC(C)C)NC(=O)[C@H](CCCCN)NC(=O)CN(S(C)(=O)=O)CCNC(=O)[C@H](C)NC(=O)[C@H](CO)NC(=O)[C@H](C(C)C)NC(=O)[C@H](C(C)C)NC1=O [III 2] | decrease in activity
CSCC[C@@H]1NC(=O)CN(S(C)(=O)=O)CCNC(=O)[C@H](CCCCN)NC(=O)[C@H](CC(C)C)NC(=O)[C@H](CCCCN)NC(=O)[C@H](CC(C)C)NC(=O)[C@H](CCCCN)NC(=O)CN(S(C)(=O)=O)CCNC(=O)[C@H](Cc2c[nH]c3ccccc23)NC(=O)[C@H](C)NC(=O)[C@H](C(C)C)NC(=O)[C@H](C(C)C)NC1=O [III 3] | increase in activity
CSCC[C@@H]1NC(=O)CN(S(C)(=O)=O)CCNC(=O)[C@H](CCCCN)NC(=O)[C@H](CC(C)C)NC(=O)[C@H](CCCCN)NC(=O)[C@H](CC(C)C)NC(=O)[C@H](CCCCN)NC(=O)CN(S(C)(=O)=O)CCNC(=O)[C@H](Cc2c[nH]c3ccccc23)NC(=O)[C@H](CO)NC(=O)[C@H](C)NC(=O)[C@H](C(C)C)NC1=O [III 4] | decrease in activity
CSCC[C@@H]1NC(=O)CN(S(C)(=O)=O)CCNC(=O)[C@H](CCCCN)NC(=O)[C@H](CC(C)C)NC(=O)[C@H](CCCCN)NC(=O)[C@H](CC(C)C)NC(=O)[C@H](CCCCN)NC(=O)CN(S(C)(=O)=O)CCNC(=O)[C@H](Cc2c[nH]c3ccccc23)NC(=O)[C@H](CO)NC(=O)[C@H](C(C)C)NC(=O)[C@H](C)NC1=O [III 5] | increase in activity
CC(C)C[C@@H]1NC(=O)[C@H](CCCCN)NC(=O)CN(S(C)(=O)=O)CCNC(=O)[C@H](Cc2c[nH]c3ccccc23)NC(=O)[C@H](CO)NC(=O)[C@H](C(C)C)NC(=O)[C@H](C(C)C)NC(=O)[C@H](C)NC(=O)CN(S(C)(=O)=O)CCNC(=O)[C@H](CCCCN)NC(=O)[C@H](CC(C)C)NC(=O)[C@H](CCCCN)NC1=O [III 6] | decrease in activity
CCCC[C@@H]1NC(=O)CN(S(C)(=O)=O)CCNC(=O)[C@H](CCCCN)NC(=O)[C@H](CC(C)C)NC(=O)[C@H](CCCCN)NC(=O)[C@H](CC(C)C)NC(=O)[C@H](CCCCN)NC(=O)CN(S(C)(=O)=O)CCNC(=O)[C@H](Cc2c[nH]c3ccccc23)NC(=O)[C@H](CO)NC(=O)[C@H](C(C)C)NC(=O)[C@H](C(C)C)NC1=O [III 7] | increase in activity
CSCC[C@@H]1NC(=O)[C@H](C(C)C)NC(=O)[C@H](C(C)C)NC(=O)[C@H](CO)NC(=O)[C@H](Cc2c[nH]c3ccccc23)NC(=O)CN(S(C)(=O)=O)CCNC(=O)[C@H](CCCCN)NC(=O)[C@H](CC(C)C)NC(=O)[C@H](CCCCN)NC(=O)[C@H](CC(C)C)NC(=O)[C@H](CCCCN)NC(=O)CN(S(C)(=O)=O)CCNC1=O [III 8] | increases in activity

same assay, conditions: cyclic III peptide analogs, Table 8; H929 cells, TOPRO 3; read-out: IC50

Compound | IC50 [µM]
CCCC[C@@H]1NC(=O)[C@H](C)NC(=O)[C@H](C(C)C)NC(=O)[C@H](C)NC(=O)[C@H](Cc2c[nH]c3ccccc23)NC(=O)CN(S(C)(=O)=O)CCNC(=O)[C@H](CCCCN)NC(=O)[C@H](CC(C)C)NC(=O)[C@H](CCCCN)NC(=O)[C@H](CC(C)C)NC(=O)[C@H](CCCCN)NC(=O)CN(S(C)(=O)=O)CCNC1=O [Peptide 13, KLKLKT1WAVAN*T1] | 26
